Earlier results as cited in patent publication US10130658B2, “Method of ex vivo enhancement of immune cell activity for cancer immunotherapy with a small molecule ablative compound” (Provectus Pharmatech, Inc., priority 2015, dated 2018).

Tests used:
Hela cells = conditions: treated for 1 hour following photodynamic irradiation

O=C1OC2(c3cc(I)c(O)c(I)c3Oc3c2cc(I)c(O)c3I)c2c(Cl)c(Cl)c(Cl)c(Cl)c21 [RB, 4,5,6,7-tetrachloro-2′,4′,5′,7′-tetraiodofluorescein]
time to autolyse tumor cells (tumor cells; accumulates in lysosomes of tumor cells): 30 to 60 min
uptake into normal cells (tumor cells; normal cells): excluded

CC(=O)Oc1c(I)cc2c(c1I)Oc1c(cc(I)c(OC(C)=O)c1I)C21OC(=O)c2c(Cl)c(Cl)c(Cl)c(Cl)c21 [rose bengal acetate]
HMGB1 release (Hela cells): passively released
